PubChem BioAssay (NCI)
“And” between values parts separate entries of the source, which are not always exact repeats. Equal values may be shown once.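 Test compounds were applied to cells in 96-well plates for 48 hours at 5 doses. At the GI50, growth is halved. TGI: total growth inhibition.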

Tests used:
Experiment in all cases: NCI tumour cell line growth inhibition, 48 h
A549 NSCLC = test system: A549 NSCLC
SW-620 colon = test system: SW-620 colon
SK-OV-3 ovarian = test system: SK-OV-3 ovarian
U251 CNS = test system: U251 CNS
KM12 colon = test system: KM12 colon
OVCAR-8 ovarian = test system: OVCAR-8 ovarian
TK-10 renal = test system: TK-10 renal
NCI-H460 lung = test system: NCI-H460 lung
RPMI-8226 leukemia = test system: RPMI-8226 leukemia
COLO 205 colon = test system: COLO 205 colon

Oc1cccc2cccnc12
GI50 (A549 NSCLC): 6.17 µM and 16.4 µM and 5.97 µM | TGI (A549 NSCLC): > 100 µM | GI50 (SW-620 colon): 0.904 µM and 3.9 µM and 2.36 µM | TGI (SW-620 colon): > 100 µM | GI50 (SK-OV-3 ovarian): 42.2 µM and 46.1 µM and > 100 µM | TGI (SK-OV-3 ovarian): > 100 µM | GI50 (U251 CNS): 3.32 µM and 23.8 µM and 5.14 µM | TGI (U251 CNS): > 100 µM | GI50 (KM12 colon): 3.04 µM and 14 µM and 5.1 µM | TGI (KM12 colon): > 100 µM | GI50 (OVCAR-8 ovarian): 3.39 µM and 14.6 µM and 2.67 µM | TGI (OVCAR-8 ovarian): > 100 µM | GI50 (TK-10 renal): 51.5 µM and 8.42 µM and 47.7 µM | TGI (TK-10 renal): > 100 µM | GI50 (NCI-H460 lung): 1.6 µM and 3.32 µM and 3.85 µM | TGI (NCI-H460 lung): 23.4 µM and > 100 µM and 21.9 µM | GI50 (RPMI-8226 leukemia): 0.2 µM | TGI (RPMI-8226 leukemia): 1.07 µM and 4.31 µM | GI50 (COLO 205 colon): 5.58 µM and 19.1 µM and 16.9 µM | TGI (COLO 205 colon): 40.3 µM and 67.7 µM and > 100 µM

C/C(=N\NC(=O)c1ccccc1O)c1c(O)cc(C)oc1=O
TGI (A549 NSCLC): > 100 µM | TGI (SW-620 colon): > 100 µM | TGI (SK-OV-3 ovarian): 86.7 µM | TGI (U251 CNS): > 100 µM | TGI (KM12 colon): > 100 µM | TGI (OVCAR-8 ovarian): > 100 µM | TGI (TK-10 renal): > 100 µM | TGI (NCI-H460 lung): > 100 µM | TGI (RPMI-8226 leukemia): > 100 µM | TGI (COLO 205 colon): > 100 µM

NC(=O)c1ccc(I)c([N+](=O)[O-])c1
GI50 (A549 NSCLC): > 94.5 µM | TGI (A549 NSCLC): > 100 µM | GI50 (SW-620 colon): > 100 µM | TGI (SW-620 colon): > 100 µM | GI50 (SK-OV-3 ovarian): > 100 µM | TGI (SK-OV-3 ovarian): > 100 µM | GI50 (U251 CNS): 45.3 µM | TGI (U251 CNS): > 100 µM | GI50 (KM12 colon): > 100 µM | TGI (KM12 colon): > 100 µM | GI50 (OVCAR-8 ovarian): > 100 µM | TGI (OVCAR-8 ovarian): > 100 µM | GI50 (TK-10 renal): > 100 µM | TGI (TK-10 renal): > 100 µM | GI50 (NCI-H460 lung): > 100 µM | TGI (NCI-H460 lung): > 100 µM | GI50 (RPMI-8226 leukemia): 50.1 µM | TGI (RPMI-8226 leukemia): > 100 µM | GI50 (COLO 205 colon): > 100 µM | TGI (COLO 205 colon): > 100 µM

COc1ccc(C2=NN(C(C)=O)c3nc4ccccc4nc3O2)cc1
TGI (A549 NSCLC): > 100 µM | TGI (SW-620 colon): > 100 µM | TGI (U251 CNS): 61.8 µM | TGI (KM12 colon): > 100 µM | TGI (OVCAR-8 ovarian): > 100 µM | TGI (TK-10 renal): 52.1 µM | TGI (NCI-H460 lung): > 100 µM | TGI (RPMI-8226 leukemia): > 100 µM | TGI (COLO 205 colon): > 100 µM

Oc1ccc(Br)cc1C=NC1CCCCC1
TGI (A549 NSCLC): > 100 µM | TGI (SW-620 colon): > 100 µM | TGI (SK-OV-3 ovarian): > 100 µM | TGI (U251 CNS): > 100 µM | TGI (KM12 colon): > 100 µM | TGI (OVCAR-8 ovarian): > 100 µM | TGI (TK-10 renal): > 100 µM | TGI (NCI-H460 lung): > 100 µM | TGI (RPMI-8226 leukemia): > 100 µM | TGI (COLO 205 colon): > 100 µM

COc1cc(OCCCN2CCCC2)ccc1Nc1ncc(Cl)c(Nc2ccccc2P(C)(C)=O)n1
GI50 (A549 NSCLC): 2.14 µM | TGI (A549 NSCLC): 10.6 µM | GI50 (SW-620 colon): 1.37 µM | TGI (SW-620 colon): 5.36 µM | GI50 (SK-OV-3 ovarian): 2.3 µM | TGI (SK-OV-3 ovarian): 6.41 µM | GI50 (U251 CNS): 5.43 µM | TGI (U251 CNS): 19.8 µM | GI50 (KM12 colon): 2.63 µM | TGI (KM12 colon): 11 µM | GI50 (OVCAR-8 ovarian): 3.65 µM | TGI (OVCAR-8 ovarian): 38.8 µM | GI50 (TK-10 renal): 0.983 µM | TGI (TK-10 renal): 4.91 µM | GI50 (NCI-H460 lung): 2.47 µM | TGI (NCI-H460 lung): 12 µM | GI50 (RPMI-8226 leukemia): 2.68 µM | TGI (RPMI-8226 leukemia): 12.2 µM | GI50 (COLO 205 colon): 1.08 µM | TGI (COLO 205 colon): 2.81 µM

COc1ccc(-c2oc3ncnc(N)c3c2-c2ccc(NC(=O)Nc3cc(C(F)(F)F)ccc3F)cc2)cc1
GI50 (A549 NSCLC): 0.762 µM | TGI (A549 NSCLC): 3.43 µM | GI50 (SW-620 colon): 0.952 µM | TGI (SW-620 colon): 3.58 µM | GI50 (SK-OV-3 ovarian): 0.894 µM | TGI (SK-OV-3 ovarian): 5.09 µM | GI50 (U251 CNS): 0.997 µM | TGI (U251 CNS): 3.83 µM | GI50 (KM12 colon): 0.00588 µM | TGI (KM12 colon): 1.51 µM | GI50 (OVCAR-8 ovarian): 0.79 µM | TGI (OVCAR-8 ovarian): 3.73 µM | GI50 (TK-10 renal): 0.67 µM | TGI (TK-10 renal): 3.37 µM | GI50 (NCI-H460 lung): 0.85 µM | TGI (NCI-H460 lung): 2.97 µM | GI50 (RPMI-8226 leukemia): 2.26 µM | TGI (RPMI-8226 leukemia): 10.1 µM | GI50 (COLO 205 colon): 0.558 µM | TGI (COLO 205 colon): 1.45 µM
